The record followed here is ChEMBL document CHEMBL1201862, “PubChem BioAssay data set” (2004).

Experiment in all cases: NCI anticancer screen, dose series, 48 h
The subject of experiment [1] is DLD-1.
Experiment [2] concerns KM-20L2.
In experiment [3] the test system is XF498.
Experiment [4] concerns DMS-273.
Experiment [5] has as its system SNB-78.
Experiment [6] has as its system DMS-114.
The test system of experiment [7] is HOP-18.
In experiment [8] the test system is M19-MEL.
Experiment [9] has as its system RXF 631.

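Step 1: Grow cells in 96-well plates. Step 2: Expose to compound for 48 hours at 5 concentrations. Step 3: Interpolate endpoints linearly; if unreached, use highest concentration. Abbreviation: GI50, concentration required for 50% inhibition of growth.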 Active and inactive are the calls of the source. No stated cut-off is given here; in the data, active = GI50 up to about 1.1 µM and inactive = higher.

As to `Cn1cnc2nc(Cl)nc(NC(C)(C)C(C)(C)O)c21`, the GI50 in [1], in [2], in experiment [3], in [4], in experiment [5] and in [6] was > 100 µM (inactive) in each case. Further, the GI50 in experiment [7] was > 100 µM (inactive).
For the molecule `N#CC(/C(=N/NC(=N)N)C(=O)Nc1ccccc1[N+](=O)[O-])c1nc(-c2ccc([N+](=O)[O-])cc2)cs1` (stereo unspecified), the GI50 in experiment [1], in experiment [2], in experiment [3], in [4], in experiment [5] and in [6] was > 100 µM (inactive) each time. In addition, in [8], the GI50 was > 100 µM (inactive).
Consider `C=CCNC(=S)N/C=C1\C(=O)Oc2ccccc2C1=O`, for which the GI50 was 41.1 µM (inactive) in experiment [1]; > 100 µM (inactive) in experiment [2]; 18.9 µM (inactive) in experiment [3]; > 100 µM (inactive) in experiment [4]; 43.9 µM (inactive) in experiment [5]; 35.2 µM (inactive) in experiment [6]. For the same molecule, the GI50 in experiment [7] was 46.2 µM (inactive); in experiment [8], > 100 µM (inactive).
Turning to `CCOC(=O)C(C(=O)OCC)=C1C=C(c2ccccc2)c2ccccc21`, the GI50 in experiment [1] is 10.7 µM (inactive); in experiment [2], 31.6 µM (inactive); in [3], 70.5 µM (inactive); in experiment [4], 51.5 µM (inactive); in experiment [5], > 100 µM (inactive); in [6], 54.6 µM (inactive). In addition, the GI50 in [8] was 52.5 µM (inactive).
`C[C@@H](NC1CCC[C@H]1O)c1ccccc1` (stereo partly specified): the GI50 was > 100 µM (inactive) in [1]; > 100 µM (inactive) in experiment [2]; 5.66 µM (inactive) in experiment [3]; > 100 µM (inactive) in experiment [4]; > 100 µM (inactive) in experiment [5]; > 100 µM (inactive) in experiment [6]. Further, the GI50 in experiment [7] and in experiment [8] was > 100 µM (inactive) throughout.
`COc1ccc(O)cc1C(O)c1ccccc1` (stereo unspecified): the GI50 in experiment [1], in experiment [2], in experiment [3], in experiment [4], in [5] and in experiment [7] was > 100 µM (inactive) each time. Besides, the GI50 in [8] was > 100 µM (inactive).
Take `COCC(=O)OC1CCn2c1nc1c2C(=O)C(C)=C(NC(C)=O)C1=O` (stereo unspecified): the GI50 in experiment [1] is 12.9 µM (inactive); in experiment [2], 20.4 µM (inactive); in [3], 4.41 µM (inactive); in experiment [4], 17.5 µM (inactive); in experiment [5], 1.81 µM (inactive); in experiment [6] it was 1.82 µM (inactive). For the same molecule, the GI50 in experiment [7] was 27.9 µM (inactive); in experiment [8], 11.7 µM (inactive).
For the molecule `c1ccc2c(c1)CCCc1cc3ccccc3nc1-2`, the GI50 is > 100 µM (inactive) in experiment [1]; > 100 µM (inactive) in [2]; 53.3 µM (inactive) in experiment [3]; 85.7 µM (inactive) in experiment [5]; 26.9 µM (inactive) in experiment [6]; > 100 µM (inactive) in experiment [7]. Moreover, the GI50 in experiment [8] was > 100 µM (inactive).
`O=C1Nc2ccccc2N/C1=C\C(=O)c1ccccc1O`: the GI50 in [1], in [2], in experiment [4], in [5], in experiment [6] and in experiment [7] was > 100 µM (inactive) throughout. For the same molecule, the GI50 in experiment [8] is > 100 µM (inactive).
For `NC(CCCNCc1ccccc1O)C(=O)O` (stereo unspecified), the GI50 in experiment [1], in [2], in [4], in [5], in experiment [6] and in experiment [7] was > 100 µM (inactive) each time. Further, the GI50 in experiment [8] was > 100 µM (inactive).
On to `Brc1cccc(/C=N/C23CC4CC(CC(C4)C2)C3)c1`, for which the GI50 in [1], in [2], in experiment [3], in experiment [4], in experiment [5] and in experiment [6] was > 100 µM (inactive) each time. In addition, the GI50 in experiment [7] and in experiment [8] was > 100 µM (inactive) each time.
In the case of `CC(=O)C1C(c2ccccc2)C2(C)OC(=O)C(C#N)C12C` (stereo unspecified), the GI50 in [1], in experiment [2], in experiment [3], in experiment [4], in experiment [5] and in experiment [6] was > 100 µM (inactive) in each case. Further, the GI50 in experiment [7] and in experiment [8] was > 100 µM (inactive) throughout.
Take `C=CCC1=C(C)C[C@@H]2CCC(=O)C=C12`: the GI50 in experiment [9], in experiment [4], in experiment [5], in experiment [6] and in experiment [8] was > 100 µM (inactive) in each case.
`CC(=O)Nc1ccc(S(=O)(=O)N/N=C/CN2C(=O)c3ccccc3C2=O)cc1`: the GI50 in [1], in experiment [2], in [3], in experiment [4], in experiment [6] and in experiment [8] was > 100 µM (inactive) throughout.
As to `COc1ccc(CN[C@H]2CCc3cc(OC)c(OC)c(OC)c3-c3ccc(SC)c(=O)cc32)c(OC)c1OC`, the GI50 is 0.0327 µM (active) in experiment [1]; 0.0185 µM (active) in experiment [2]; 0.0308 µM (active) in [3]; 0.0267 µM (active) in experiment [4]; 0.0394 µM (active) in experiment [5]; 0.019 µM (active) in [6]. Besides, the GI50 was 58.3 µM (inactive) in experiment [7] and 0.0338 µM (active) in experiment [8].
Turning to `O=CC1CCC=CC1NC(=O)OCc1ccccc1` (stereo unspecified), the GI50 is 27.2 µM (inactive) in experiment [1]; 44.2 µM (inactive) in experiment [3]; 27.9 µM (inactive) in experiment [4]; 50 µM (inactive) in experiment [5]; 22.7 µM (inactive) in experiment [6]; > 100 µM (inactive) in experiment [7]. The GI50 in [8] was 41.8 µM (inactive).
On to `CC(C)=CC1C[C@H](C2CC=C3C2(C)CCC2[C@@]3(C)C(=O)CC3[C@]2(C)C=CC(=O)[C@]3(C)CO)CO1` (stereo partly specified), for which the GI50 in experiment [2] is 5.42 µM (inactive); in experiment [3] it was 4.93 µM (inactive); in experiment [4], 5.66 µM (inactive); in experiment [5] it was 13.6 µM (inactive); in [6] it was 4.23 µM (inactive); in experiment [7], 11 µM (inactive). The GI50 in experiment [8] was 3.85 µM (inactive).
As to `O=C1NC2(CCCCCC2)C2CCCCCCC12O` (stereo unspecified), the GI50 in [1], in experiment [3], in experiment [4], in experiment [5], in [6] and in experiment [7] was > 100 µM (inactive) in each case. In addition, in experiment [8], the GI50 was > 100 µM (inactive).
For the molecule `C[C@]12CCC(=O)C(O)=C1CC[C@@H]1C2CC[C@]2(C)Nc3c(cnn3-c3ccccc3)CC12` (stereo partly specified), the GI50 in [1] was > 100 µM (inactive); in experiment [9], 29.9 µM (inactive); in [2], 56.5 µM (inactive); in [3], > 100 µM (inactive); in experiment [4] it was 56.4 µM (inactive); in [5] it was > 100 µM (inactive). In addition, the GI50 in [8] was > 100 µM (inactive).
